Results on 21 compounds are retold here after USRE37781E1, “Substituted cyclic carbonyls and derivatives thereof useful as retroviral protease inhibitors” (DuPont Pharmaceuticals Company, priority 1991, dated 2002).

Values after ≈ are worked out from the molar mass of the structure shown. Read-outs that look alike come from different tables or passages of the source.

Assay [1] addresses single-chain tethered dimer of HIV protease (Human immunodeficiency virus 1, UniProt P04585). The assay is described as follows: biochemical. It is filed as biochemical. The arrangement: fused on or other part: A second copy of the same protease unit is joined to the first by a short peptide tether, giving one polypeptide.
Another assay deals with HIV-1 (RF) in MT-2 cells. Description: microbe, parasite or virus in culture. It is filed as cell-based. In short, it runs like this: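 Read-out: gag and pol viral RNA captured by 5′-biotinylated oligonucleotides on streptavidin-coated wells, detected with alkaline phosphatase-linked reporter oligonucleotides, calibrated against BH10 in vitro transcripts. Virus stocks (RF, MN, IIIB) come from H9 cultures; MT-2 host cells kept in RPMI 1640, 5% FCS.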

Setting [2] is: read-out: HPLC K1, Table 2d, class symbols.
The mark [3] stands for this setting: Human immunodeficiency virus 1, MT2, 48 h, Table 2d, class symbols, read-out: IC90.
Setting [4] is: Table 2d, HIV protease inhibition, HPLC method, read-out: HPLC K1.
The mark [5] stands for this setting: read-out: HPLC K1, Table 2d, HIV protease inhibition, HPLC method.
The mark [6] stands for this setting: Human immunodeficiency virus 1, MT2, 48 h, Table 2d, HIV RNA assay, read-out: IC90.
[7] abbreviates: Table 2d, class symbols, read-out: HPLC K1.

As to `O=C1N(Cc2cccc(Br)c2)C(Cc2ccccc2)C(O)C(O)C(Cc2ccccc2)N1Cc1cccc(C#CCO)c1` (stereo not drawn) [Example 9N], the Ki in assay [1] (setting [2]) is 10 to 1000 nM. Also, the IC90 in the assay with HIV-1 (RF) in MT-2 cells (setting [3]) is less than 10 µg/mL.
Turning to `O=S1(=O)N(Cc2cccc(OCc3ccccc3)c2)C(Cc2ccccc2)C(O)C(O)C(Cc2ccccc2)N1Cc1cccc(OCc2ccccc2)c1` (stereo not drawn) [Example 23C], the Ki in assay [1] (read-out: HPLC Ki, Table 2m) is 10 to 1000 nM. In the assay on HIV-1 (RF) in MT-2 cells (Human immunodeficiency virus 1, MT2, Table 2m, read-out: IC90), the IC90 was 10 to 100 µg/mL (≈ 13.2 to 132 µM).
With `O=P1(Oc2ccccc2)N(Cc2ccc(CO)cc2)[C@H](Cc2ccccc2)[C@H](O)[C@@H](O)[C@@H](Cc2ccccc2)N1Cc1ccc(CO)cc1` (stereo partly drawn) [28E], the Ki in assay [1] (Table 2r, read-out: Ki HPLC) fell in the range of 10 to 1000 nM. The IC90 entry with HIV-1 (RF) in MT-2 cells (Table 2r) is “+++ (+++=<10 μg/mL)”.
In the case of `CC(=O)NCCCCCN1C(=O)N(CCCCCNC(C)=O)C(Cc2ccccc2)C(O)C(O)C1Cc1ccccc1` (stereo not drawn) [15ET], the Ki in assay [1] (setting [4]) is 10 to 1000 nM. Also, in the assay on HIV-1 (RF) in MT-2 cells (Table 2d, HIV RNA assay), the IC90 entry was “++/+ (The ++/+ is used in the cases where an IC90 was determined to be >50 μg/mL)”.
With `O=C1NC(Cc2ccccc2)C(O)C(O)C(Cc2ccccc2)N1Cc1cccc(O)c1` (stereo not drawn) [10I], the Ki in assay [1] (setting [2]) was less than 10 nM. In the assay with HIV-1 (RF) in MT-2 cells (setting [3]), the IC90 is less than 10 µg/mL.
As for `Cl.Cl.O=C(CN1CCOCC1)NCCCCCN1C(=O)N(CCCCCNC(=O)CN2CCOCC2)C(Cc2ccccc2)C(O)C(O)C1Cc1ccccc1` (stereo not drawn) [15FE], the Ki in assay [1] (HIV protease inhibition, HPLC method, Table 2d, read-out: HPLC K1) was in the range of 10 to 1000 nM. The IC90 entry in the assay on HIV-1 (RF) in MT-2 cells (HIV RNA assay, HIV-1 infected MT-2 cells, Table 2d) is on record as “++/+ (The ++/+ is used in the cases where an IC90 was determined to be >50 μg/mL)”.
Take `CCCN1C(Cc2ccccc2)C(O)C(O)C(Cc2ccccc2)N(CCC)S1(=O)=O` (stereo not drawn) [23X]: the Ki in assay [1] (Table 2m, read-out: HPLC Ki) was less than 10 nM. In the assay with HIV-1 (RF) in MT-2 cells (Table 2m), the IC90 entry is on record as “+++ (+++=<10 μg/mL)”.
As for `NS(=O)(=O)c1cccc(CN2C(=O)N(Cc3cccc(S(N)(=O)=O)c3)C(Cc3ccccc3)C(O)C(O)C2Cc2ccccc2)c1` (stereo not drawn) [15XQ], the Ki in assay [1] (setting [5]) was less than 10 nM. The IC90 in the assay with HIV-1 (RF) in MT-2 cells (setting [6]) is less than 10 µg/mL.
On to `NC(=NO)c1cc(CN2C(=O)N(Cc3ccc(F)c(C(N)=NO)c3)C(Cc3ccccc3)C(O)C(O)C2Cc2ccccc2)ccc1F` (stereo not drawn) [15EF], for which the Ki in assay [1] (setting [4]) was less than 10 nM. Also, the IC90 result with HIV-1 (RF) in MT-2 cells (Table 2d, HIV RNA assay) was “+++ (+++=<10 μg/mL)”.
In the case of `CC(=NO)c1cccc(CN2C(Cc3ccccc3)C(O)C(O)C(Cc3ccccc3)N(Cc3cccc(C(C)=NO)c3)S2(=O)=O)c1` (stereo not drawn) [23U], the Ki in assay [1] (Table 2m, read-out: HPLC Ki) was less than 10 nM. Also, in the assay with HIV-1 (RF) in MT-2 cells (Table 2m), the IC90 result was “+++ (+++=<10 μg/mL)”.
Take `O=C1N(Cc2ccc3c(c2)NS(=O)(=O)N3)C(Cc2ccccc2)C(O)C(O)C(Cc2ccccc2)N1Cc1ccc2c(c1)NS(=O)(=O)N2` (stereo not drawn) [15CW]: the Ki in assay [1] (setting [4]) was less than 10 nM. The IC90 entry with HIV-1 (RF) in MT-2 cells (Table 2d, HIV RNA assay) was “++ (++=10 to 100 μg/mL)”.
As to `CC(=O)OCCCCCCN1C(=O)N(CCCCCCO)C(Cc2ccccc2)C(O)C(O)C1Cc1ccccc1` (stereo not drawn) [Example 12V], the Ki in assay [1] (setting [2]) fell in the range of 10 to 1000 nM. Moreover, in the assay on HIV-1 (RF) in MT-2 cells (setting [3]), the IC90 is less than 10 µg/mL.
Turning to `O=C1N(Cc2cnccc2O)C(Cc2ccccc2)C(O)C(O)C(Cc2ccccc2)N1Cc1cnccc1O` (stereo not drawn) [Example 14C], the Ki in assay [1] (setting [7]) is 10 to 1000 nM. The IC90 result with HIV-1 (RF) in MT-2 cells (Table 2d, class symbols) is “+ (+=>100 μg/mL)”.
The corresponding values for `Cc1cncc(O)c1CN1C(=O)N(Cc2c(C)cncc2O)C(Cc2ccccc2)C(O)C(O)C1Cc1ccccc1` (stereo not drawn) [Example 14K] are 10 to 1000 nM and “+ (+=>100 μg/mL)”.
Regarding `O=C(O)c1ccc(CN2C(=O)N(Cc3ccc(CO)cc3)C(Cc3ccccc3)C(O)C(O)C2Cc2ccccc2)cc1` (stereo not drawn) [15XA], in assay [1] (setting [5]), the Ki was less than 10 nM. The IC90 with HIV-1 (RF) in MT-2 cells (setting [6]) fell in the range of 10 to 100 µg/mL (≈ 17.2 to 172 µM).
As for `O=C1N(CC2CC2)C(CCc2ccccc2)[C@@H](O)[C@@H](Cc2ccccc2)N1CC1CC1` (stereo partly drawn) [Example 8H], the Ki in assay [1] (read-out: Ki (HPLC), Table 1e, cells marked (HPLC)) is less than 10 nM. Besides, the IC90 in the assay on HIV-1 (RF) in MT-2 cells (Human immunodeficiency virus 1, MT2, Table 1e, read-out: IC90) was less than 10 µg/mL.
On to `NCc1ccc(CN2C(=O)N(Cc3ccc(CO)cc3)C(Cc3ccccc3)C(O)C(O)C2Cc2ccccc2)cc1` (stereo not drawn) [Example 15YH], for which the Ki in assay [1] (setting [4]) lay in the range of 10 to 1000 nM. In the assay with HIV-1 (RF) in MT-2 cells (Table 2d, HIV RNA assay), the IC90 entry was “++ (++=10 to 100 μg/mL)”.
On to `CC(CCCCN1C(=O)N(CCCCC(C)=NO)C(Cc2ccccc2)C(O)C(O)C1Cc1ccccc1)=NO` (stereo not drawn) [Example 15WC], for which, in assay [1] (setting [2]), the Ki was 10 to 1000 nM. Further, in the assay with HIV-1 (RF) in MT-2 cells (setting [3]), the IC90 is less than 10 µg/mL.
For `CN1CCN(Cc2cccc(C(=O)OCc3ccc(CN4C(=O)N(Cc5ccc(COC(=O)c6cccc(CN7CCN(C)CC7)c6)cc5)[C@H](Cc5ccccc5)[C@H](O)[C@@H](O)[C@H]4Cc4ccccc4)cc3)c2)CC1.Cl.Cl` [29Y], in assay [1] (Table 2s, read-out: Ki (HPLC)), the Ki fell in the range of 10 to 1000 nM. Besides, in the assay with HIV-1 (RF) in MT-2 cells (Table 2s), the IC90 entry is on record as “+++ (+++=<10 μg/mL)”.
In the case of `CC(C)(C)OC(=O)NN=Cc1cccc(CN2C(=O)N(Cc3cccc(C=NNC(=O)OC(C)(C)C)c3)C(Cc3ccccc3)C(O)C(O)C2Cc2ccccc2)c1` (stereo not drawn) [15AL], the Ki in assay [1] (setting [4]) lay in the range of 10 to 1000 nM. Besides, the IC90 result with HIV-1 (RF) in MT-2 cells (Table 2d, HIV RNA assay) is reported as “+++ (+++=<10 μg/mL)”.
For the compound `O=C(NCc1cccnc1)c1cccc(CN2C(=O)N(Cc3cccc(-c4cc[nH]n4)c3)C(Cc3ccccc3)C(O)C(O)C2Cc2ccccc2)c1` (stereo not drawn) [Example 15BZ], the Ki in assay [1] (setting [5]) was less than 10 nM. The IC90 with HIV-1 (RF) in MT-2 cells (setting [6]) is less than 10 µg/mL.
